According to PMC11051198, “Synthesis and Late-Stage Modification of (−)-Doliculide Derivatives Using Matteson’s Homologation Approach” (Marine Drugs, 2024):

Legend:
Assay type in all cases: cell-based
[1] = tested on: U-2 OS; test: MTT cytotoxicity assay, U-2 OS; conditions: U-2 OS human bone osteosarcoma, 5 d incubation, 37 °C, 5% CO2, DMEM + 10% FBS, mean ± SD of two independent measurements
Procedure: (§1) The cell cultures were cultivated at 37 °C under an atmosphere containing 5% CO2. Before usage, Dulbecco’s Modified Eagle Medium (DMEM) from Gibco (Thermo Fisher Scientific) was supplemented with 10% fetal bovine serum (FBS) from Gibco. Cells were used between passage 5 and 30 and were split separately for at least two passages to obtain biological repeats. Cells were washed with PBS and 0.5 mL trypsin was added before treatment. Cells were then incubated for 5 min before adding 10 mL medium containing 10% FBS. Per well, 120 µL cell suspension 5 × 10^4 cells/mL (CHO-K1, HCT-116. U-2 OS, KB3.1) or 1 × 10^5 cells/mL (HepG2) cells were seeded in transparent 96-well cell bind plate and incubated for 2 h at 37 °C and an atmosphere of 5% CO2. Each compound was tested in a serial dilution so that the starting concentration is 111 µg/mL, which is diluted by 1:3 as well as the internal solvent control prepared in DMEM with 10% FBS. After 5 d incubation at 37 °C and an atmosphere of 5% CO2, 20 μL of 5 mg/mL MTT (thiazolyl blue tetrazolium bromide) in PBS was added per well and cells were further incubated until coloration of the cells. The medium was then discarded and 100 μL 2-propanol/10 N HCl (250:1) added to the cells. The plates were analyzed by measuring the absorbance at 570 nm and 630 nm as reference using a microplate reader Infinite® 200 Pro from Tecan (Männedorf, Switzerland). Absorption is then converted to cell viability expressed as percentage relative to the respective solvent control. The calculated percentage of growth inhibition were determined by sigmoidal curve fitting using GraphPad (Boston, MA, USA) Prism software (version 10.0.2). Two independent measurements were generated for mean and standard deviation.

[2] = tested on: HepG2; test: MTT cytotoxicity assay, HepG2; conditions: HepG2 human hepatocellular carcinoma, 5 d incubation, 37 °C, 5% CO2, DMEM + 10% FBS, mean ± SD of two independent measurements
Procedure: as §1

[3] = tested on: KB3.1; test: MTT cytotoxicity assay, KB3.1; conditions: KB3.1 human epidermoid carcinoma cell line, 5 d incubation, 37 °C, 5% CO2, DMEM + 10% FBS, mean ± SD of two independent measurements
Procedure: as §1

[4] = tested on: HCT-116; test: MTT cytotoxicity assay, HCT-116; conditions: HCT-116 human colon carcinoma, 5 d incubation, 37 °C, 5% CO2, DMEM + 10% FBS, mean ± SD of two independent measurements
Procedure: as §1

[5] = tested on: CHO-K1; test: MTT cytotoxicity assay, CHO-K1; conditions: CHO-K1 mutagenized Chinese hamster ovary, 5 d incubation, 37 °C, 5% CO2, DMEM + 10% FBS, mean ± SD of two independent measurements
Procedure: as §1

[6] = ≤ values: individual results varied widely, given as a range

Q: How did the IC50 [1, 6] turn out when `C[C@H]1C[C@@H](C)[C@@H](O)C[C@@H](CC#C[Si](C)(C)C)OC(=O)[C@@H](Cc2ccc(O)c(I)c2)N(C)C(=O)CNC(=O)[C@@H](C)C1` [Compound 8a, (3R,9S,11S,13R,14S,16R)-14-Hydroxy-3-(4-hydroxy-3-iodobenzyl)-4,9,11,13-tetramethyl-16-[3-(trimethylsilyl)prop-2-yn-1-yl]-1-oxa-4,7-diazacyclohexadecane-2,5,8-trione] was run?
A: 336 ± 146 nM

Q: What about the IC50 [2] of the same compound?
A: 20000 ± 4500 nM

Q: And the IC50 [3, 6]?
A: ≤ 115 nM

Q: What about the IC50 [4, 6] of the same compound?
A: 8 ± 7.3 nM

Q: What about the IC50 [5] of the same compound?
A: 380 ± 44 nM

Q: Which results are given for `C=CC[C@@H]1C[C@H](O)[C@H](C)C[C@H](C)C[C@H](C)C(=O)NCC(=O)N(C)[C@H](Cc2ccc(O)c(I)c2)C(=O)O1` [Compound 8b, (3R,9S,11S,13R,14S,16R)-16-Allyl-14-hydroxy-3-(4-hydroxy-3-iodobenzyl)-4,9,11,13-tetramethyl-1-oxa-4,7-diazacyclohexadecane-2,5,8-trione]?
A: IC50 [1, 6]: 521 ± 488 nM; IC50 [2]: > 60200 nM; IC50 [3, 6]: 103 ± 65 nM; IC50 [4, 6]: 16 ± 8 nM; IC50 [5]: 264 ± 13 nM

Q: Which results are given for `C#CC[C@@H]1C[C@H](O)[C@H](C)C[C@H](C)C[C@H](C)C(=O)NCC(=O)N(C)[C@H](Cc2ccc(O)c(I)c2)C(=O)O1` [Compound 8c, (3R,9S,11S,13R,14S,16R)-14-Hydroxy-3-(4-hydroxy-3-iodobenzyl)-4,9,11,13-tetramethyl-16-(prop-2-yn-1-yl)-1-oxa-4,7-diazacyclohexadecane-2,5,8-trione]?
A: IC50 [1, 6]: 49 ± 33 nM; IC50 [2]: 147 ± 65 nM; IC50 [3, 6]: 114 ± 49 nM; IC50 [4, 6]: 65 ± 16 nM; IC50 [5]: 474 ± 147 nM

Q: With `C[C@H]1C[C@@H](C)[C@@H](O)C[C@@H](Cc2cn(Cc3ccccc3)nn2)OC(=O)[C@@H](Cc2ccc(O)c(I)c2)N(C)C(=O)CNC(=O)[C@@H](C)C1` [Compound 9a, (3R,9S,11S,13R,14S,16R)-16-[(1-Benzyl-1H-1,2,3-triazol-4-yl)methyl]-14-hydroxy-3-(4-hydroxy-3-iodobenzyl)-4,9,11,13-tetramethyl-1-oxa-4,7-diazacyclohexadecane-2,5,8-trione] as the compound, how does the IC50 [1, 6] read?
A: ≤ 80 nM

Q: And the IC50 [2]?
A: > 49600 nM

Q: And the IC50 [3, 6]?
A: 47 ± 13 nM

Q: And the IC50 [4, 6]?
A: 309 ± 81 nM

Q: And the IC50 [5]?
A: 24 ± 9 nM

Q: With `CCCCCn1cc(C[C@@H]2C[C@H](O)[C@H](C)C[C@H](C)C[C@H](C)C(=O)NCC(=O)N(C)[C@H](Cc3ccc(O)c(I)c3)C(=O)O2)nn1` [Compound 9b, (3R,9S,11S,13R,14S,16R)-14-hydroxy-3-(4-hydroxy-3-iodobenzyl)-4,9,11,13-tetramethyl-16-((1-pentyl-1H-1,2,3-triazol-4-yl)methyl)-1-oxa-4,7-diazacyclohexadecane-2,5,8-trione] as the compound, how does the IC50 [1, 6] read?
A: ≤ 110 nM

Q: What about the IC50 [3, 6] of the same compound?
A: 41 ± 14 nM

Q: And the IC50 [4, 6]?
A: ≤ 110 nM

Q: And the IC50 [5]?
A: 69 ± 12 nM

Q: Which IC50 [1] does the source give for `C[C@H]1C[C@@H](C)[C@@H](O)C[C@@H](Cc2cn(CCOCCOCC(=O)O)nn2)OC(=O)[C@@H](Cc2ccc(O)c(I)c2)N(C)C(=O)CNC(=O)[C@@H](C)C1` [Compound 9d, 2-{2-[2-(4-{[(3R,9S,11S,13R,14S,16R)-14-Hydroxy-3-(4-hydroxy-3-iodobenzyl)-4,9,11,13-tetramethyl-2,5,8-trioxo-1-oxa-4,7-diazacyclohexadecan-16-yl]methyl}-1H-1,2,3-triazol-1-yl)ethoxy]ethoxy}acetic Acid] here?
A: > 46200 nM

Q: What about the IC50 [2] of the same compound?
A: > 46200 nM

Q: And the IC50 [3]?
A: > 46200 nM

Q: And the IC50 [4]?
A: > 46200 nM

Q: And the IC50 [5]?
A: > 46200 nM

Q: For `C[C@H]1C[C@@H](C)[C@@H](O)C[C@@H](Cc2cn(CCOCCOCCO)nn2)OC(=O)[C@@H](Cc2ccc(O)c(I)c2)N(C)C(=O)CNC(=O)[C@@H](C)C1` [Compound 9e, (3R,9S,11S,13R,14S,16R)-14-Hydroxy-3-(4-hydroxy-3-iodobenzyl)-16-((1-(2-(2-(2-hydroxyethoxy)ethoxy)ethyl)-1H-1,2,3-triazol-4-yl)methyl)-4,9,11,13-tetramethyl-1-oxa-4,7-diazacyclohexadecane-2,5,8-trione], which IC50 [1] is on record?
A: 23000 ± 4400 nM

Q: What about the IC50 [2] of the same compound?
A: > 47000 nM

Q: And the IC50 [3]?
A: 10500 ± 300 nM

Q: What about the IC50 [4] of the same compound?
A: 8550 ± 1140 nM

Q: And the IC50 [5]?
A: > 47000 nM

Q: `C[C@H]1C[C@@H](C)[C@@H](O)C[C@@H](Cc2cn(CCOCCOCCNC(=O)OC(C)(C)C)nn2)OC(=O)[C@@H](Cc2ccc(O)c(I)c2)N(C)C(=O)CNC(=O)[C@@H](C)C1` [Compound 9f, tert-Butyl (2-{2-[2-(4-{[(3R,9S,11S,13R,14S,16R)-14-hydroxy-3-(4-hydroxy-3-iodobenzyl)-4,9,11,13-tetramethyl-2,5,8-trioxo-1-oxa-4,7-diazacyclohexadecan-16-yl]methyl}-1H-1,2,3-triazol-1-yl)ethoxy]ethoxy}ethyl)carbamate] was tested. Which IC50 [1] did it give?
A: 1560 ± 670 nM

Q: What about the IC50 [2] of the same compound?
A: > 41700 nM

Q: And the IC50 [3, 6]?
A: 722 ± 180 nM

Q: What about the IC50 [4, 6] of the same compound?
A: 86 ± 79 nM

Q: What about the IC50 [5] of the same compound?
A: 6380 ± 2810 nM

Q: `C[C@H]1C[C@@H](C)[C@@H](O)C[C@@H](Cc2cn(CCOCCOCCOCCNC(=O)OC(C)(C)C)nn2)OC(=O)[C@@H](Cc2ccc(O)c(I)c2)N(C)C(=O)CNC(=O)[C@@H](C)C1` [Compound 9g, tert-Butyl [2-(2-{2-[2-(4-{[(3R,9S,11S,13R,14S,16R)-14-hydroxy-3-(4-hydroxy-3-iodobenzyl)-4,9,11,13-tetramethyl-2,5,8-trioxo-1-oxa-4,7-diazacyclohexadecan-16-yl]methyl}-1H-1,2,3-triazol-1-yl)ethoxy]ethoxy}ethoxy)ethyl]carbamate] was tested. Which IC50 [1] did it give?
A: 2940 ± 1750 nM

Q: What about the IC50 [2] of the same compound?
A: > 39700 nM

Q: What about the IC50 [3] of the same compound?
A: 3290 ± 1390 nM

Q: What about the IC50 [4, 6] of the same compound?
A: 432 ± 140 nM

Q: What about the IC50 [5] of the same compound?
A: 12900 ± 3000 nM

Q: How did the IC50 [1, 6] turn out when `C[C@H]1C[C@@H](C)[C@@H](O)C[C@@H](CC#Cc2ccccc2)OC(=O)[C@@H](Cc2ccc(O)c(I)c2)N(C)C(=O)CNC(=O)[C@@H](C)C1` [Compound 10a, (3R,9S,11S,13R,14S,16R)-14-Hydroxy-3-(4-hydroxy-3-iodobenzyl)-4,9,11,13-tetramethyl-16-(3-phenylprop-2-yn-1-yl)-1-oxa-4,7-diazacyclohexadecane-2,5,8-trione] was run?
A: 683 ± 87 nM

Q: What about the IC50 [2] of the same compound?
A: 15500 ± 300 nM

Q: What about the IC50 [3, 6] of the same compound?
A: 49 ± 29 nM

Q: What about the IC50 [4, 6] of the same compound?
A: 14.5 ± 0.6 nM

Q: And the IC50 [5]?
A: 247 ± 145 nM

Q: How did the IC50 [1] turn out when `COc1ccc(C#CC[C@@H]2C[C@H](O)[C@H](C)C[C@H](C)C[C@H](C)C(=O)NCC(=O)N(C)[C@H](Cc3ccc(O)c(I)c3)C(=O)O2)cc1` [Compound 10b, (3R,9S,11S,13R,14S,16R)-14-Hydroxy-3-(4-hydroxy-3-iodobenzyl)-16-[3-(4-methoxyphenyl)prop-2-yn-1-yl]-4,9,11,13-tetramethyl-1-oxa-4,7-diazacyclohexadecane-2,5,8-trione] was run?
A: 1880 ± 110 nM

Q: What about the IC50 [2] of the same compound?
A: > 51500 nM

Q: What about the IC50 [3] of the same compound?
A: 459000 ± 111000 nM

Q: And the IC50 [4, 6]?
A: 153 ± 56 nM

Q: What about the IC50 [5] of the same compound?
A: 1460 ± 280 nM

Q: `C[C@H]1C[C@@H](C)[C@@H](O)C[C@@H](CC#Cc2ccc([N+](=O)[O-])cc2)OC(=O)[C@@H](Cc2ccc(O)c(I)c2)N(C)C(=O)CNC(=O)[C@@H](C)C1` [Compound 10c, (3R,9S,11S,13R,14S,16R)-14-Hydroxy-3-(4-hydroxy-3-iodobenzyl)-4,9,11,13-tetramethyl-16-[3-(4-nitrophenyl)prop-2-yn-1-yl]-1-oxa-4,7-diazacyclohexadecane-2,5,8-trione] was tested. Which IC50 [1, 6] did it give?
A: 491 ± 95 nM

Q: And the IC50 [2]?
A: > 50400 nM

Q: What about the IC50 [3, 6] of the same compound?
A: 98 ± 41 nM

Q: And the IC50 [4, 6]?
A: 10 ± 3 nM

Q: And the IC50 [5]?
A: 586 ± 205 nM

Q: With `CCCCSCCC[C@@H]1C[C@H](O)[C@H](C)C[C@H](C)C[C@H](C)C(=O)NCC(=O)N(C)[C@H](Cc2ccc(O)c(I)c2)C(=O)O1` [Compound 11b, (3R,9S,11S,13R,14S,16R)-16-[3-(Butylthio)propyl]-14-hydroxy-3-(4-hydroxy-3-iodobenzyl)-4,9,11,13-tetramethyl-1-oxa-4,7-diazacyclohexadecane-2,5,8-trione] as the compound, how does the IC50 [1, 6] read?
A: 238 ± 10 nM

Q: And the IC50 [2]?
A: > 52500 nM

Q: And the IC50 [3, 6]?
A: 28 ± 3 nM

Q: And the IC50 [4]?
A: > 52500 nM

Q: And the IC50 [5]?
A: 142 ± 85 nM
